Data taken from article PMC2654083 (The Journal of General Physiology, 2009).

Target: KirBac1.1 (Burkholderia pseudomallei, UniProt P83698)
Assay: biochemical

Chain of KirBac1.1 (P83698 1-333): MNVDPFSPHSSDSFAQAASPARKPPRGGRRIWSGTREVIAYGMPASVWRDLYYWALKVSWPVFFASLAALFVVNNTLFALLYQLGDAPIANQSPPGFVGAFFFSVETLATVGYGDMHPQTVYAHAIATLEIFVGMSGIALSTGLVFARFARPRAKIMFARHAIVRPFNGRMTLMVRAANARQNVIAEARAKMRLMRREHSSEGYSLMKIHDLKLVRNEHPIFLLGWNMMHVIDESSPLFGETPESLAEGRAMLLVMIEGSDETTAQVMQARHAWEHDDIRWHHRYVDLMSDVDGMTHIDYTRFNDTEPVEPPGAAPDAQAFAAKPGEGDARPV

NCCCNCCCCNCCCN [spermine] showed an IC50 of 800 µM.
